Holding throughout (type): functional, cell-based
The test system of one experiment is OVCAR-3. Kind of experiment: Cytotoxicity against human OVCAR-3 cells assessed as inhibition of cell proliferation measured after 72 hrs by CellTiter 96 AQueous One Solution Cell Proliferation assay. Particulars: for IC50: OVCAR-3, 72 h.
For the next experiment, the system named is MDA-MB-435. Kind of experiment: Cytotoxicity against human MDA-MB-435 cells assessed as inhibition of cell proliferation measured after 72 hrs by CellTiter 96 AQueous One Solution Cell Proliferation assay. The following applies: for IC50: MDA-MB-435, 72 h.
In a further experiment the test system is MDA-MB-231. Description: Cytotoxicity against human MDA-MB-231 cells assessed as inhibition of cell proliferation measured after 72 hrs by CellTiter 96 AQueous One Solution Cell Proliferation assay. Particulars: for IC50: MDA-MB-231, 72 h.
The subject of a further experiment is HL-60. Kind of experiment: Cytotoxicity against human HL-60 cells assessed as reduction in cell viability incubated for 72 hrs by MTT assay. Particulars: HL-60, 72 h.
Another experiment has as its system A2780. Description: Cytotoxicity against human A2780 cells assessed as reduction in cell viability incubated for 72 hrs by MTT assay. Particulars: A2780, 72 h.
The next experiment relates to HCT-116. Description: Cytotoxicity against human HCT-116 cells assessed as reduction in cell viability incubated for 72 hrs by MTT assay. The following applies: HCT-116, 72 h.
A further experiment deals with SF-295. Description: Cytotoxicity against human SF-295 cells assessed as reduction in cell viability incubated for 72 hrs by MTT assay. Particulars: SF-295, 72 h.
The test system of another experiment is HepG2. Kind of experiment: Cytotoxicity against human HepG2 cells assessed as reduction in cell viability incubated for 72 hrs by MTT assay. The following applies: HepG2, 72 h.
The test system of a further experiment is PC-3. Kind of experiment: Cytotoxicity against human PC-3 cells assessed as reduction in cell viability incubated for 72 hrs by MTT assay. Particulars: PC-3, 72 h.
For another experiment, the system named is HT-29. Kind of experiment: Cytotoxicity against human HT-29 cells measured after 72 hrs by CellTiter 96 AQueous One Solution Cell Proliferation assay. Particulars: HT-29, 72 h.

The structures appear in SMILES notation. Calls of active or inactive are those of the source. The rule behind the calls is not given here.

As to `CO[C@@]12OC[C@@H](O)[C@]1(C)CC[C@@H]1C2=C[C@H]2OC(=O)[C@]3(C)[C@H]2[C@]12CC[C@@]3(O)OC2`, the IC50 turned out to be 6.3 µM with OVCAR-3, 3600 nM with MDA-MB-435 and 4 µM in the experiment with MDA-MB-231.

With `COc1cc2c(c3occc13)C[C@H]1OC(=O)[C@]3(C)[C@H]1[C@@]21CO[C@]3(O)[C@@H](O[C@@H]2O[C@H](CO)[C@@H](O)[C@H](O)[C@H]2O)C1`, the result with OVCAR-3, with MDA-MB-435 and with MDA-MB-231 was inactive.

As for `C[C@@]1(C(=O)CO)CC[C@@H]2C(=C[C@H]3OC(=O)[C@]4(C)[C@H]3[C@]23CC[C@@]4(O)OC3)C1`, the IC50 is 4.4 µM in the experiment with OVCAR-3; 2100 nM with HL-60; 3900 nM in the experiment with A2780; 2300 nM with MDA-MB-435; 1700 nM in the experiment with HCT-116; 2200 nM with SF-295. In addition, the IC50 in the experiment with HepG2 turned out to be 5.7 µM; with MDA-MB-231, 2.7 µM; in the experiment on PC-3 it was 3.6 µM.

Regarding `C[C@@]1([C@H](O)CO)CC[C@@H]2C(=C[C@H]3OC(=O)[C@@]4(C)CCC[C@@]2(C)[C@@H]34)C1`, the outcome in the experiment on OVCAR-3, in the experiment on MDA-MB-435 and in the experiment on MDA-MB-231 was inactive.

`C[C@@]12CC[C@@H]3C(=C[C@H]4OC(=O)[C@]5(C)[C@H]4[C@]34CC[C@@]5(O)OC4)[C@]1(O)OC[C@H]2O`: the IC50 in the experiment with OVCAR-3 was 5.6 µM; in the experiment with A2780, 1700 nM; with MDA-MB-435, 2800 nM; in the experiment on HT-29 it was 4.2 µM; in the experiment with MDA-MB-231 it was 3.4 µM.

As for `COc1cc2c(c3occc13)C[C@@H](O)[C@@H]1[C@]23CC[C@@H](O[C@@H]2O[C@H](CO)[C@@H](O)[C@H](O)[C@H]2O)[C@@]1(C)C(=O)OC3`, the outcome in the experiment on OVCAR-3, in the experiment with MDA-MB-435 and in the experiment on MDA-MB-231 was inactive.

The values above are taken from ChEMBL document CHEMBL4842309, “(9βH)- and 17-Nor-Pimaranes from Icacina oliviformis” (J Nat Prod, 2021).
